Values after ≈ are worked out from the molar mass of the structure shown.
What was measured:
Format in all cases: functional
[1] = system: Escherichia coli; experiment: The compound was tested for its antibacterial activity against Escherichia coli (21 strains)
[2] = system: Pseudomonas aeruginosa; experiment: The compound was tested for its antibacterial activity against Pseudomonas aeruginosa (20 strains)
[3] = system: Enterococcus faecalis; experiment: The compound was tested for its antibacterial activity against Enterococcus faecalis (10 strains)
[4] = system: Streptococcus pneumoniae; experiment: The compound was tested for its antibacterial activity against Streptococcus pneumoniae (10 strains), expressed as MIC90
[5] = system: Bacteroides fragilis; experiment: The compound was tested for its antibacterial activity against Bacteroides fragilis (12 strains)
[6] = system: Haemophilus influenzae; experiment: The compound was tested for its antibacterial activity against Haemophilus influenzae (10 strains)
[7] = system: Streptococcus pyogenes; experiment: The compound was tested for its antibacterial activity against Streptococcus pyogenes (10 strains)
[8] = system: Staphylococcus aureus; experiment: The compound was tested for its antibacterial activity against Staphylococcus aureus (12 strains)
[9] = system: Staphylococcus aureus; experiment: The compound was tested for its antibacterial activity against Staphylococcus aureus, ciprofloxacin resistant (14 strains)

SMILES	MIC90 [1]	MIC90 [2]	MIC90 [3]	MIC90 [4]	MIC90 [5]	MIC90 [6]	MIC90 [7]	MIC90 [8]	MIC90 [9]
CS(=O)(=O)O.C[C@H]1CN(c2c(F)cc3c(=O)c(C(=O)O)cn(C45CC(C4)C5)c3c2F)C[C@H]1CN	0.125 µg/mL	8 µg/mL	0.25 µg/mL	0.125 µg/mL	1 µg/mL	0.06 µg/mL	0.125 µg/mL	0.125 µg/mL	0.5 µg/mL
O=C(O)c1cn(C2CC2)c2cc(N3CCNCC3)c(F)cc2c1=O [CIPROFLOXACIN]	0.03 µg/mL (≈ 0.0905 µM)	2 µg/mL (≈ 6.04 µM)	2 µg/mL (≈ 6.04 µM)	1 µg/mL (≈ 3.02 µM)	8 µg/mL (≈ 24.1 µM)	0.015 µg/mL (≈ 0.0453 µM)	0.5 µg/mL (≈ 1.51 µM)	1 µg/mL (≈ 3.02 µM)	> 16 µg/mL

Source: ChEMBL document CHEMBL1152103, “U-87947E, a protein quinolone antibacterial agent incorporating a bicyclo[1.1.1]pent-1-yl (BCP) subunit” (1993)
